Target: CFTR (Homo sapiens, UniProt P13569, G551D)
Test: Ussing chamber short-circuit current, FRT cells
Type: cell-based

Sequence of CFTR (P13569 whole entry G551D): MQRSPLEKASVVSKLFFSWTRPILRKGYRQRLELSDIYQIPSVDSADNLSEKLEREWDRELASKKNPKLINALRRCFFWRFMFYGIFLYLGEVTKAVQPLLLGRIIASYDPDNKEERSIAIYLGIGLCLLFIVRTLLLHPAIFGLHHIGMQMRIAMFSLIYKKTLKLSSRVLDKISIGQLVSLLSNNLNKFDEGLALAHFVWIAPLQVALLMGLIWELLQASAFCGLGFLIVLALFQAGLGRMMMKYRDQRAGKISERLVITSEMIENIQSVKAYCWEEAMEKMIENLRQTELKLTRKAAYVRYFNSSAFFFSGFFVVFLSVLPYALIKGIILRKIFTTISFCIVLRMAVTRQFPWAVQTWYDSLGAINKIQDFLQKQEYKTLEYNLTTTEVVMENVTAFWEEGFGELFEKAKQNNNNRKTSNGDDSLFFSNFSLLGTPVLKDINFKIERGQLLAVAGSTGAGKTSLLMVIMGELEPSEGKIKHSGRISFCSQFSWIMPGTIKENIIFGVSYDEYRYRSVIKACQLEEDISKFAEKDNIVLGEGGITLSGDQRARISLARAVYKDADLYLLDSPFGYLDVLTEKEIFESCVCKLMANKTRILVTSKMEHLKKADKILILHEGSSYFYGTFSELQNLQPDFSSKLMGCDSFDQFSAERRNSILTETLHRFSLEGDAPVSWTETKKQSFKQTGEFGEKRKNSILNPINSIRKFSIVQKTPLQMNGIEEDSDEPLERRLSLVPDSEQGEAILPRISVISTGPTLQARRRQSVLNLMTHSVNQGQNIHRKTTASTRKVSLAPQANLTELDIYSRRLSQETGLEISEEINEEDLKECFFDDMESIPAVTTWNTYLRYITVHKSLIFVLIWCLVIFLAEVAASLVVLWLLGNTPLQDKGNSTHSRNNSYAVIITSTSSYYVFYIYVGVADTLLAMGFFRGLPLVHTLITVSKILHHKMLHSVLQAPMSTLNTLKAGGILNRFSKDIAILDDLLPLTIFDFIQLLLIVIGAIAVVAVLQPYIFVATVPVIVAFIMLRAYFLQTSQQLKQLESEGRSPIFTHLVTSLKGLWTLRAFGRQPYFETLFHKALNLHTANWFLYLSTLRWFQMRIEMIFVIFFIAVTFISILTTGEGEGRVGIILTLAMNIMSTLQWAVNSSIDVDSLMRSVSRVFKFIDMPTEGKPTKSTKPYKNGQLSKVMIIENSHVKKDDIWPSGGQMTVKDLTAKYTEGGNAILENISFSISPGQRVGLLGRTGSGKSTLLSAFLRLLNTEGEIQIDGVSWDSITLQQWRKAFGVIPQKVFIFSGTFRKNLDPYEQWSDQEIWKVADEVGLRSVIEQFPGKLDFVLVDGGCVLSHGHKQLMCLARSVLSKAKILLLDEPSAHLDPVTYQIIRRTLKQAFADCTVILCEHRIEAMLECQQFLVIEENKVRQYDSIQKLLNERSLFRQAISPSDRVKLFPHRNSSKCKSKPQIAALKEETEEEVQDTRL

In the case of `CC(C)(C)c1cc(C(C)(C)C)c(NC(=O)c2c[nH]c3ccccc3c2=O)cc1O` [VX-770], the “Ussing chamber short-circuit current, FRT cells” value was “In terms of efficacy as a single agent, uHTS159 is roughly equivalent to VX-770”.

From article PMC13267069 (npj Drug Discovery, 2025)
